Tested on: Primary rat aorta smooth muscle cell cultures
Assay: smooth muscle cell proliferation ([3H]-thymidine incorporation)
Format: cell-based
Details: [3H]-thymidine (0.5 µCi/mL), 24 hours at 37°C, M 199 plus 10% fetal bovine serum, cells per well as percent of control
Source text: This utility was established by subjecting the compound to the following standard experimental test procedure:
Primary rat aorta smooth muscle cell cultures grown in media 199 (Gibco ) plus 10% fetal bovine serum (Gibco) were washed with calcium, magnesium free Dulbecco's phosphate buffered saline and trypsinized for five minutes. Cells were scraped from culture dishes with a rubber policeman and centrifuged. Cells were resuspended in M 199 plus 10% fetal bovine serum containing [^3H)-thymidine (0.5 µCi/mL) at 8-15,000 cells/mL, and were placed into plate wells. The novel intermediate was added to each well and the plates were incubated for 24 hours at 37°C. in a 5% CO2 atmosphere. The cultured cells were treated with trichloracetic acid to remove acid soluble proteins, leaving only cell superstructure and DNA. These cells were solubilized, counted by scintillation and the results compared with control to determine the number of cells per well, the difference in cells being expressed as a percent of control.

CC(=O)[C@@]1(C)CC[C@H]2[C@@H]3C[C@@](C)(O)C4=CC(=O)CC[C@]4(C)[C@H]3CC[C@@]21C [6β - Hydroxy - 6α,17α - dimethylpregn - 4 - ene - 3,20 - dione]
IC50: 26.4 µM
